For six compounds, EC50, CC50 and AC50 results are on record in ChEMBL document CHEMBL1201862, “PubChem BioAssay data set” (2004).

The source made the active and inactive calls.

In test [1] the test system is Streptococcus sp. 'group A'. The experiment in a line: Streptococcus pyogenes SK(-)GAS viability under kanamycin – luminescence, BacTiterGlo, confirmation, counter-screen for streptokinase expression inhibitor project, dose response (AID 1900). Format: functional, organism-based.
For test [2], the target named is T1, Streptokinase A (Streptococcus pyogenes serotype M1, UniProt P10520).
T1 sequence (P10520 whole entry): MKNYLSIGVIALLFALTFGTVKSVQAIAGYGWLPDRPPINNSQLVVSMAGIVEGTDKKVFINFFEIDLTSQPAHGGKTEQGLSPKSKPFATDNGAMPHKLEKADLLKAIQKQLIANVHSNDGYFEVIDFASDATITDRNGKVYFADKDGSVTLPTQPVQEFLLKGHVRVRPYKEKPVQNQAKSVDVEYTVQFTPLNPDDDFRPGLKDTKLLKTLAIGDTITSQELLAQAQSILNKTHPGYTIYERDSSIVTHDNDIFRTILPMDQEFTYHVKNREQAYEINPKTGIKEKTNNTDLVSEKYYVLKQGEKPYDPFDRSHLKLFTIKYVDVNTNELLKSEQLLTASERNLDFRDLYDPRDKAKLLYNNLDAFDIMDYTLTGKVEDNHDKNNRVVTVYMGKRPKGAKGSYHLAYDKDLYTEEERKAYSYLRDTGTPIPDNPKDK
Put plainly: viability-normalized secreted streptokinase activity reduction – plasminogen activation absorbance, OD405, dose response (AID 1914).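 Also: secreted streptokinase activity via plasminogen activation per viability signal from cell pellet.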 It counts as functional, Streptococcus pyogenes M1 GAS.

For test [3], the target named is T2, Estrogen receptor (Homo sapiens, UniProt P03372).
T2 sequence (P03372 whole entry): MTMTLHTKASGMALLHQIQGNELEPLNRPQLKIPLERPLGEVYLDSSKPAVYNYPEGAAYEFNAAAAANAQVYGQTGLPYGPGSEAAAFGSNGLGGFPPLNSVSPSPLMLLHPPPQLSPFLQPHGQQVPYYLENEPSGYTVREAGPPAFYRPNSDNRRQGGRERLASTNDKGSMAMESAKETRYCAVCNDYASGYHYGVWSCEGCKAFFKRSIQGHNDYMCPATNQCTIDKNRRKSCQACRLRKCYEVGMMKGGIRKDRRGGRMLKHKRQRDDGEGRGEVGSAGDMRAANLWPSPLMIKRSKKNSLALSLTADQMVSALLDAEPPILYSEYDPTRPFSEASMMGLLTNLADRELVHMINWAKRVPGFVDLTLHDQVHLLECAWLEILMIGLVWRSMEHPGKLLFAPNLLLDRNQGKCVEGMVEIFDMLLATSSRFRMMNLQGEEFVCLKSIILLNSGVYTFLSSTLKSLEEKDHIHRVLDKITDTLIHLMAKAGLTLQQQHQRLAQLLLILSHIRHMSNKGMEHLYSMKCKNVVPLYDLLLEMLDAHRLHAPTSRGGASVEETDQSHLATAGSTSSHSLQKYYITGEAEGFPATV
The experiment in a line: ERα coactivator recruitment enhancers – biochemical, TR-FRET, ERα LBD, dose response (AID 737). For orientation: In TR-FRET formats the signal depends on donor and acceptor labels being close together.

In test [4] the test system is Streptococcus. The experiment in a line: GAS UMAA2166 growth inhibition – luminescence, BacTiterGlo, counter-screen for streptokinase expression inhibitor project, dose response (AID 1915).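 Also: potency for reduction of bacterial viability or growth.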 It counts as functional, organism-based. On the technique in general: The purpose of a counterscreen is to sort out artefacts and off-target activity.
Test [5] is described as follows: A Cell Based Secondary Assay To Explore Cytotoxicity of Compounds that Sensitize Mycobacterium Tuberculosis to Beta-Lactam Antibiotics. Format: functional.
Test [6] concerns the target Lysosomal acid glucosylceramidase (Homo sapiens, UniProt P04062). The experiment in a line: Dose response cell-based high throughput screening assay to identify enhancers of beta-glucosidase activity. [Related pubchem assays: 784 ]. It counts as functional.
Test [7] is described as follows: Luminescence Cell-Based Dose-Confimation HTS to Identify Inhibitors of 5'UTR Stem-Loop Driven Alpha-Synuclein mRNA Translation in H4 Neuroglioblastoma Cells. [Related pubchem assays: 1827 (Project Summary), 1813 (Primary HTS)]. Format: functional.
In test [8] the test system is HeLa. The experiment in a line: Cytotoxicity counterscreen assay for transcriptional activators of heat shock protein 70 (Hsp70). [Related pubchem assays: 1203, 1252 ]. It counts as functional. The note with it: Homo sapiens.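 Also: cells exposed to compound for 16 hours before readout.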
For test [9], the target named is Cytochrome P450 2D6 (Homo sapiens, UniProt P10635). Put plainly: qHTS Assay for Inhibitors and Substrates of Cytochrome P450 2D6. [Related pubchem assays: 410 ]. It counts as ADME. The settings on record: read-out: Potency. A general note: qHTS replaces the single test concentration by a dilution series.
The target in test [10] is Cytochrome P450 3A4 (Homo sapiens, UniProt P08684). The note with it: Potency.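 Also: confirmatory qHTS run detecting inhibitors and substrates of CYP3A4.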
Sequence of Cytochrome P450 3A4 (P08684 whole entry): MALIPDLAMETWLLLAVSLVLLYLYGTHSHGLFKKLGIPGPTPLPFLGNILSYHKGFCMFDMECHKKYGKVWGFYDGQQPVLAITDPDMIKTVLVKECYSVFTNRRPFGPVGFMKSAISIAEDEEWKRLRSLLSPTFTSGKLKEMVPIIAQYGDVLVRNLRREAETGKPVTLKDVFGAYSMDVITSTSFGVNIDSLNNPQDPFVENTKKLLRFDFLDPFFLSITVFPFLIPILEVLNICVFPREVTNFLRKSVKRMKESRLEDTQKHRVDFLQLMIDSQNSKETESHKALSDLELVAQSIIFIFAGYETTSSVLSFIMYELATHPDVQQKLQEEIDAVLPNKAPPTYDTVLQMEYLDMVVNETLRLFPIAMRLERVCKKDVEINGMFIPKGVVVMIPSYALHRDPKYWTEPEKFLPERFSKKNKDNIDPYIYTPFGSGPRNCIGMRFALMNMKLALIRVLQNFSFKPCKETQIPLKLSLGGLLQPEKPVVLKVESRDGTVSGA

Sequence of Lysosomal acid glucosylceramidase (P04062 whole entry): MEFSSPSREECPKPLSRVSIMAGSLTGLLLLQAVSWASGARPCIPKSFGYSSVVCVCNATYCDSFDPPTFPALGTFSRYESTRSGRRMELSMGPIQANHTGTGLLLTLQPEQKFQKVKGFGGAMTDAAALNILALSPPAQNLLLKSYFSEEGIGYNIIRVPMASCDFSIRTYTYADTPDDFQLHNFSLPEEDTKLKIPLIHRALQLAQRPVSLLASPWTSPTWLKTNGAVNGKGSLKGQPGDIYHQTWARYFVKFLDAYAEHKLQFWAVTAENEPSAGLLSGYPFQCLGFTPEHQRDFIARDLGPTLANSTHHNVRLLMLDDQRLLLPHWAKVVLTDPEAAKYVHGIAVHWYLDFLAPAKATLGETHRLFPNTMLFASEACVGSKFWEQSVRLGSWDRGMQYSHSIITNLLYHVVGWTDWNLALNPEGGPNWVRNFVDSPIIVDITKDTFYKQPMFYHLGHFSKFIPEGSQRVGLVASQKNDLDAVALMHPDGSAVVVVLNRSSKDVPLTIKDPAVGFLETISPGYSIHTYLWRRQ
Sequence of Cytochrome P450 2D6 (P10635 whole entry): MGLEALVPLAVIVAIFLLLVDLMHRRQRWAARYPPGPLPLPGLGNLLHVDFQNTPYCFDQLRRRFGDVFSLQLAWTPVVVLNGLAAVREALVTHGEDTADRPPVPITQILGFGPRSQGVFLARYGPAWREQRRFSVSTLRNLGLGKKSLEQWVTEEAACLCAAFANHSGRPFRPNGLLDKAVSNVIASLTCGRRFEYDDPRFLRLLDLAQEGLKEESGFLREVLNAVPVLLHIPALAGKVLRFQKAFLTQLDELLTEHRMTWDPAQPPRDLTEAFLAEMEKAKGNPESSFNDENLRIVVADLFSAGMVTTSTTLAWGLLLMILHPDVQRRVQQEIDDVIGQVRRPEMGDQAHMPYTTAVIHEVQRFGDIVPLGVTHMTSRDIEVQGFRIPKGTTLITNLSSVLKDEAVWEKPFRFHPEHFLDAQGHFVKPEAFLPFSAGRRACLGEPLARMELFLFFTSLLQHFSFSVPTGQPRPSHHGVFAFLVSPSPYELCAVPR

The term EC50 denotes the concentration that produces a half-maximal response. With `Cn1nnnc1SCC(=O)Nc1nc(-c2ccccc2)c(-c2ccccc2)o1`, the EC50 in test [1] is 12.7 µM (active); in test [2], > 150 µM (not active); in test [3] it was 22.2 µM (active); in test [4], 26 µM (active). By CC50 is commonly meant the concentration that lowers cell viability or growth by half. As to `COC(=O)c1c(C)n(-c2ccc(C)cc2)c2ccc(O)cc12`, the CC50 in test [5] is > 40 µM (active). As to `COCCCNC(=O)Cn1cc(C(=O)C2CC2)c2ccccc21`, the EC50 in test [6] is on record as > 50 µM (not active). With `COc1ccc(C)cc1-n1nnnc1SCc1nc(N)nc(N(C)C)n1`, the 50% effective concentration (EC50) in [7] is 20.5 µM (active). Regarding `N#Cc1ccc(NC(=O)c2nc(-c3ccccc3)n(-c3ccccc3)n2)cc1`, the CC50 in [8] is recorded as > 99 µM (not active).

For `CC12C=C(/C=C/c3ccc(C(F)(F)F)cc3)C(C)(C1)C(c1ccc(C(F)(F)F)cc1)CC2=O` (stereo not given), the AC50 in test [9] is 6.31 µM (inconclusive); in test [10], 3.98 µM (inconclusive).
